Values joined by “and” are separate entries in the source; they are usually repeats but may differ in a detail not shown here. Equal values may be shown once.
Assays:
Assay in all cases: radiometric filter-binding kinase assay, Kinase HotSpot
Details in all cases: compound 0.5 µM; ATP 10 µM
GSG2 (human) = GSG2 (human) (UniProt Q8TF76)
DDR2 (human) = DDR2 (human) (UniProt Q16832)
CDK1 CCNA2 (human) = CDK1 CCNA2 (human) (UniProt P06493+P20248)
MERTK (human) = MERTK (human) (UniProt Q12866)
ULK1 (human) = ULK1 (human) (UniProt O75385)
PRKG1 (human) = PRKG1 (human) (UniProt Q13976)
TAOK2 (human) = TAOK2 (human) (UniProt Q9UL54)
MAP2K2 (human) = MAP2K2 (human) (UniProt P36507)
MAP3K9 (human) = MAP3K9 (human) (UniProt P80192)
MAPK1 (human) = MAPK1 (human) (UniProt P28482)
BMX (human) = BMX (human) (UniProt P51813)
CHEK2 (human) = CHEK2 (human) (UniProt O96017)
ROS1 (human) = ROS1 (human) (UniProt P08922)
PRKD3 (human) = PRKD3 (human) (UniProt O94806)
AXL (human) = AXL (human) (UniProt P30530)
GRK7 (human) = GRK7 (human) (UniProt Q8WTQ7)
PRKCZ (human) = PRKCZ (human) (UniProt Q05513)
PHKG1 (human) = PHKG1 (human) (UniProt Q16816)
Sequence of PHKG1 (human) (Q16816 whole entry, looked up): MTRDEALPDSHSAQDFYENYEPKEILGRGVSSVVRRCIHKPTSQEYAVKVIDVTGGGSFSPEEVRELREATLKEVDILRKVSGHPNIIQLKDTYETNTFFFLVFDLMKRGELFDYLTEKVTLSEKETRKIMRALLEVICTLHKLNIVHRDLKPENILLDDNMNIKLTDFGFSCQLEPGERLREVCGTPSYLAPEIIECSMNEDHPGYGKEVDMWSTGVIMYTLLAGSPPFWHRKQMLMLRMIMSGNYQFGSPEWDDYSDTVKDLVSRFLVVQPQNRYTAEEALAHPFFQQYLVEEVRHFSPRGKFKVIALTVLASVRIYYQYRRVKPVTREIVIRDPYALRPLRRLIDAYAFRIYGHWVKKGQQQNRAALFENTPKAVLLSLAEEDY

CAMK4 (human) = CAMK4 (human) (UniProt Q16566)
PTK6 (human) = PTK6 (human) (UniProt Q13882)
DYRK2 (human) = DYRK2 (human) (UniProt Q92630)
ADRBK1 (human) = ADRBK1 (human) (UniProt P25098)
MAP3K11 (human) = MAP3K11 (human) (UniProt Q16584)
CSK (human) = CSK (human) (UniProt P41240)
GSK3B (human) = GSK3B (human) (UniProt P49841)
Sequence of GSK3B (human) (P49841 whole entry, looked up): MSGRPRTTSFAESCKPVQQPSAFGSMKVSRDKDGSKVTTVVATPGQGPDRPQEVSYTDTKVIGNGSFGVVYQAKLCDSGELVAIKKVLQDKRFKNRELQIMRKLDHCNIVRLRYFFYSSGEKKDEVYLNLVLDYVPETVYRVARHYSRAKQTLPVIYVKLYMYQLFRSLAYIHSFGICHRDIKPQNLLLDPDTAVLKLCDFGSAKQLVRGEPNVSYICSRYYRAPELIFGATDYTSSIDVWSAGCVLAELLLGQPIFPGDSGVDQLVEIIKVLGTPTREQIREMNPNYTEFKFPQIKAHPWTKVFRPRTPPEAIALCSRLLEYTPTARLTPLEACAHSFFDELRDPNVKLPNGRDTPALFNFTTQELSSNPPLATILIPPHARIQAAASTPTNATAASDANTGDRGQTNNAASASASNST

NEK7 (human) = NEK7 (human) (UniProt Q8TDX7)
ACVR1B (human) = ACVR1B (human) (UniProt P36896)
Sequence of ACVR1B (human) (P36896 whole entry, looked up): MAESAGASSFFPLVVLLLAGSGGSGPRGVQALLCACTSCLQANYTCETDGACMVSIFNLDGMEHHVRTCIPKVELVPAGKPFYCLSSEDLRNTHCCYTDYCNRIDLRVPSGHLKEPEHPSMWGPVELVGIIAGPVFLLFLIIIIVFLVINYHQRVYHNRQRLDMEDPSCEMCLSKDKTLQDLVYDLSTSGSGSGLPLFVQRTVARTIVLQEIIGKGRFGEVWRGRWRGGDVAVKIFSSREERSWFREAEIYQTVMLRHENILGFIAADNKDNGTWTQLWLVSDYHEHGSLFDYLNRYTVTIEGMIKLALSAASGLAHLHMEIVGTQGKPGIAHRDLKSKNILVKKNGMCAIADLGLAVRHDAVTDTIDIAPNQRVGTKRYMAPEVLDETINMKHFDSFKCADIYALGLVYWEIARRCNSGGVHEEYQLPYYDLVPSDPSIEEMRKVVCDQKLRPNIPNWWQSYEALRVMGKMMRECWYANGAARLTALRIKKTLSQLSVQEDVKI

STK33 (human) = STK33 (human) (UniProt Q9BYT3)
TGFBR2 (human) = TGFBR2 (human) (UniProt P37173)
Sequence of TGFBR2 (human) (P37173 whole entry, looked up): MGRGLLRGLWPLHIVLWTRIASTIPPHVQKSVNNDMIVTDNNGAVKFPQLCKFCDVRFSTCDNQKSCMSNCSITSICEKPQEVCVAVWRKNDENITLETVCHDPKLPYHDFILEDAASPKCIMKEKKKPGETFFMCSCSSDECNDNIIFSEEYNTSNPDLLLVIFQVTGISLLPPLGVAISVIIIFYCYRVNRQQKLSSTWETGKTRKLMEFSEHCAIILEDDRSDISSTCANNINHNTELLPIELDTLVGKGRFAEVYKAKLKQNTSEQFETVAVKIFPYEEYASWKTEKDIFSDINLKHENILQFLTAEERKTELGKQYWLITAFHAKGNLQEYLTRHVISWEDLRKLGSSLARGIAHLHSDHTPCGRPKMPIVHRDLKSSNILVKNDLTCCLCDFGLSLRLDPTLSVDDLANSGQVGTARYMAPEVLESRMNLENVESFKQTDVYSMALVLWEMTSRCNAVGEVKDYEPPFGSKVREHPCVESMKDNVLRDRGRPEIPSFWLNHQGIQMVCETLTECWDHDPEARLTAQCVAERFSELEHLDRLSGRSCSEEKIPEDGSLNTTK

DAPK3 (human) = DAPK3 (human) (UniProt O43293)
DYRK4 (human) = DYRK4 (human) (UniProt Q9NR20)
PLK1 (human) = PLK1 (human) (UniProt P53350)
EPHA1 (human) = EPHA1 (human) (UniProt P21709)
Sequence of EPHA1 (human) (P21709 whole entry, looked up): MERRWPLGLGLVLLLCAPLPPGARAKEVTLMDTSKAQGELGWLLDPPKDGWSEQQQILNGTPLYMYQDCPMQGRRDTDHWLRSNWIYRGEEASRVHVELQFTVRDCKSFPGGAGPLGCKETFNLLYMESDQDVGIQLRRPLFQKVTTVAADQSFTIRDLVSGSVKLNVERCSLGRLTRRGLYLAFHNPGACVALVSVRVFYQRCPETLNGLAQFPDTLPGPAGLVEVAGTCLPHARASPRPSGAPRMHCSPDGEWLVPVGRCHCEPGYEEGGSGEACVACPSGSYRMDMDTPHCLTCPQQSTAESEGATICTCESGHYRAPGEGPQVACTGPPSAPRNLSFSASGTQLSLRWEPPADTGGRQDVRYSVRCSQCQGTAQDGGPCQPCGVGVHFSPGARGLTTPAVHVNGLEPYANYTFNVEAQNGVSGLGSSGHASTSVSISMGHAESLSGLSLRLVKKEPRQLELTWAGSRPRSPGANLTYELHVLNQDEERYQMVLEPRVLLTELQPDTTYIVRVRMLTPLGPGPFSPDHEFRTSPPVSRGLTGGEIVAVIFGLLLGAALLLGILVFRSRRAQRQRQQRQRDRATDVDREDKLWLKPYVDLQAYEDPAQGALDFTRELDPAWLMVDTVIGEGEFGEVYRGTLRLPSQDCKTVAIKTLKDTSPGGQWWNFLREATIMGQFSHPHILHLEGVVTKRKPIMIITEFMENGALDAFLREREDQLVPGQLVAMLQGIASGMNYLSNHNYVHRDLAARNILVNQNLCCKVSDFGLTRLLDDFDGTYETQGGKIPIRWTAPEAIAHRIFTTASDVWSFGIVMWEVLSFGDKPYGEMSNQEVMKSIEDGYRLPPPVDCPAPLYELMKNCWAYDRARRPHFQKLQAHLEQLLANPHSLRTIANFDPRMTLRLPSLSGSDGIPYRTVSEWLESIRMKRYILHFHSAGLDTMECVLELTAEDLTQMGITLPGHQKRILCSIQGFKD

MELK (human) = MELK (human) (UniProt Q14680)
ITK (human) = ITK (human) (UniProt Q08881)
TEK (human) = TEK (human) (UniProt Q02763)
MAP3K5 (human) = MAP3K5 (human) (UniProt Q99683)
NTRK1 (human) = NTRK1 (human) (UniProt P04629)
GRK4 (human) = GRK4 (human) (UniProt P32298)
ULK2 (human) = ULK2 (human) (UniProt Q8IYT8)
EPHA8 (human) = EPHA8 (human) (UniProt P29322)
Sequence of EPHA8 (human) (P29322 whole entry, looked up): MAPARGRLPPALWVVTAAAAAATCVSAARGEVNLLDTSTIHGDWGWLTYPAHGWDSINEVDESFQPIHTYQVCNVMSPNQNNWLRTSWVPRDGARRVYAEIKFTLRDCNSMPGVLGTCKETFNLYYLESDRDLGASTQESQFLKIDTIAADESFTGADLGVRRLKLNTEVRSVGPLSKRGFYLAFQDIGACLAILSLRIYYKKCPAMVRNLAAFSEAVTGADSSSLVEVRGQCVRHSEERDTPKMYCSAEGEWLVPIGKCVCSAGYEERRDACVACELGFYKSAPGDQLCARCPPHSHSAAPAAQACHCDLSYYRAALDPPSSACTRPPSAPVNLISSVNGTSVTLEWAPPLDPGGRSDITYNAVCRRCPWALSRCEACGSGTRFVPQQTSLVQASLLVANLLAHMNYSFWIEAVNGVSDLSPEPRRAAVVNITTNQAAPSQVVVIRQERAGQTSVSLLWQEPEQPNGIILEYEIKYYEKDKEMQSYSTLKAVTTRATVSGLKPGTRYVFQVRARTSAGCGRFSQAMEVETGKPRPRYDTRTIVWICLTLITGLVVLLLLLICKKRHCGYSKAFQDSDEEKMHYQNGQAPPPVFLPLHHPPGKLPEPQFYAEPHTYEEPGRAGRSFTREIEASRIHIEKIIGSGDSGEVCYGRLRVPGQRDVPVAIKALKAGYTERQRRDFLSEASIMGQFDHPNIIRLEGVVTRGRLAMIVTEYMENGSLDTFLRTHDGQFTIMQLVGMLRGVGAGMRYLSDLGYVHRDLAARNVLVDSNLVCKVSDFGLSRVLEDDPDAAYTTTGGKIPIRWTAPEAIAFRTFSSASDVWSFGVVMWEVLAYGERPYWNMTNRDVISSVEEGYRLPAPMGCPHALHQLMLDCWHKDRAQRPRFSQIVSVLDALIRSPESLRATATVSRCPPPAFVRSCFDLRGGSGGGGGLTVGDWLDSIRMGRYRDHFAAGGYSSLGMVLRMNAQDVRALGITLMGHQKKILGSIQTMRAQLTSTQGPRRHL

STK39 (human) = STK39 (human) (UniProt Q9UEW8)

Sequence of MERTK (human) (Q12866 whole entry, looked up): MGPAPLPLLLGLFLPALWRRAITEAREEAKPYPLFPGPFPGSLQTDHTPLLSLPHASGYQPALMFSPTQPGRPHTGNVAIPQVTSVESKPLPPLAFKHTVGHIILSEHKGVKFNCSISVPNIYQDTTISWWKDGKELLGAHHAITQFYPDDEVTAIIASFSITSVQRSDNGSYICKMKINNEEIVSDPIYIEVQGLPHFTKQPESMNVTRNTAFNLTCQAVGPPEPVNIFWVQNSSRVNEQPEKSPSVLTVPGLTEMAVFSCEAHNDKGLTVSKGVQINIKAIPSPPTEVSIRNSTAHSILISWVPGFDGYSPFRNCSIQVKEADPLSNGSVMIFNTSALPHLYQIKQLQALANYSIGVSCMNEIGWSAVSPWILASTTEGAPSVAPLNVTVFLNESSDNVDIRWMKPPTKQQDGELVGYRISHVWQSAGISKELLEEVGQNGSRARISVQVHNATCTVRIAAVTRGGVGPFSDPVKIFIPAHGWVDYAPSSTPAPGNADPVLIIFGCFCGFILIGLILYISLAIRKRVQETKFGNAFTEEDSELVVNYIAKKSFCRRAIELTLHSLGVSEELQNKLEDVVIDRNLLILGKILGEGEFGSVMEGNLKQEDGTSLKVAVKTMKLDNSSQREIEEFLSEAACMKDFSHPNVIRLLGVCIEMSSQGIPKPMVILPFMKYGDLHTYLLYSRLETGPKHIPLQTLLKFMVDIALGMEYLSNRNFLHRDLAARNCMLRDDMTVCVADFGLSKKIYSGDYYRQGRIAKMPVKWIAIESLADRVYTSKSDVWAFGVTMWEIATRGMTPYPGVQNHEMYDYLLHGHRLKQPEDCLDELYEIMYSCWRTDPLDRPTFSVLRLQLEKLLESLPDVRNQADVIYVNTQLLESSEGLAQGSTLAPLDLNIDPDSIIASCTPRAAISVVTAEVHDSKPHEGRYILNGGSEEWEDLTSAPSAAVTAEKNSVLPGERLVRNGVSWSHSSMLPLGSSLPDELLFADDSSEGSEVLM

## O=C1NC(=O)c2cc(Nc3ccc(F)cc3)c(Nc3ccc(F)cc3)cc21
GSG2 (human)
  residual activity: 95.1%
DDR2 (human)
  residual activity: 99.6%
CDK1 CCNA2 (human)
  residual activity: 96.1%
MERTK (human)
  residual activity: 97.4%
ULK1 (human)
  residual activity: 102%
PRKG1 (human)
  residual activity: 103% and 94.3%
TAOK2 (human)
  residual activity: 94.7%
MAP2K2 (human)
  residual activity: 89.5%
MAP3K9 (human)
  residual activity: 102%
MAPK1 (human)
  residual activity: 121%
BMX (human)
  residual activity: 95.3%
CHEK2 (human)
  residual activity: 94.3%
ROS1 (human)
  residual activity: 92%
PRKD3 (human)
  residual activity: 96.7%
AXL (human)
  residual activity: 104%
GRK7 (human)
  residual activity: 106%
PRKCZ (human)
  residual activity: 100%
PHKG1 (human)
  residual activity: 94.8%
CAMK4 (human)
  residual activity: 98.7%
PTK6 (human)
  residual activity: 95.1%
DYRK2 (human)
  residual activity: 89.1%
ADRBK1 (human)
  residual activity: 104%
MAP3K11 (human)
  residual activity: 98.4%
CSK (human)
  residual activity: 92%
GSK3B (human)
  residual activity: 89.2%
NEK7 (human)
  residual activity: 103%
ACVR1B (human)
  residual activity: 94.2%
STK33 (human)
  residual activity: 99.3%
TGFBR2 (human)
  residual activity: 85.2%
DAPK3 (human)
  residual activity: 101%
DYRK4 (human)
  residual activity: 98.6%
PLK1 (human)
  residual activity: 99.9%
EPHA1 (human)
  residual activity: 97.4%
MELK (human)
  residual activity: 92%
ITK (human)
  residual activity: 87.3%
TEK (human)
  residual activity: 97.6%
MAP3K5 (human)
  residual activity: 96.6%
NTRK1 (human)
  residual activity: 93.6%
GRK4 (human)
  residual activity: 103%
ULK2 (human)
  residual activity: 84.7%
EPHA8 (human)
  residual activity: 95.5%
STK39 (human)
  residual activity: 89.2%

## O=C1NC(=O)c2c1c1c3ccccc3[nH]c1c1[nH]c3cc(Br)ccc3c21
GSG2 (human)
  residual activity: 72.9%
DDR2 (human)
  residual activity: 91.8%
CDK1 CCNA2 (human)
  residual activity: 91.9%
MERTK (human)
  residual activity: 69.1%
ULK1 (human)
  residual activity: 99.2%
PRKG1 (human)
  residual activity: 76% and 90.7%
TAOK2 (human)
  residual activity: 94.1%
MAP2K2 (human)
  residual activity: 105%
MAP3K9 (human)
  residual activity: 7.57%
MAPK1 (human)
  residual activity: 92.4%
BMX (human)
  residual activity: 92%
CHEK2 (human)
  residual activity: 37.5%
ROS1 (human)
  residual activity: 74.4%
PRKD3 (human)
  residual activity: 49.5%
AXL (human)
  residual activity: 82.9%
GRK7 (human)
  residual activity: 98.2%
PRKCZ (human)
  residual activity: 91.8%
PHKG1 (human)
  residual activity: 40.7%
CAMK4 (human)
  residual activity: 96.2%
PTK6 (human)
  residual activity: 92.7%
DYRK2 (human)
  residual activity: 70.5%
ADRBK1 (human)
  residual activity: 97.6%
MAP3K11 (human)
  residual activity: 14%
CSK (human)
  residual activity: 100%
GSK3B (human)
  residual activity: 63.7%
NEK7 (human)
  residual activity: 96.8%
ACVR1B (human)
  residual activity: 101%
STK33 (human)
  residual activity: 71.9%
TGFBR2 (human)
  residual activity: 61.8%
DAPK3 (human)
  residual activity: 62.9%
DYRK4 (human)
  residual activity: 86%
PLK1 (human)
  residual activity: 91.2%
EPHA1 (human)
  residual activity: 98.1%
MELK (human)
  residual activity: 46.6%
ITK (human)
  residual activity: 84.1%
TEK (human)
  residual activity: 93.8%
MAP3K5 (human)
  residual activity: 94.9%
NTRK1 (human)
  residual activity: 82.2%
GRK4 (human)
  residual activity: 99.8%
ULK2 (human)
  residual activity: 86%
EPHA8 (human)
  residual activity: 102%
STK39 (human)
  residual activity: 90.7%

## Cc1cc(Nc2nc(-c3ccccc3)nc3ccccc23)n[nH]1
GSG2 (human)
  residual activity: 90.5%
DDR2 (human)
  residual activity: 93.2%
CDK1 CCNA2 (human)
  residual activity: 95%
MERTK (human)
  residual activity: 72.2%
ULK1 (human)
  residual activity: 81.1%
PRKG1 (human)
  residual activity: 94.9% and 97.3%
TAOK2 (human)
  residual activity: 90.3%
MAP2K2 (human)
  residual activity: 102%
MAP3K9 (human)
  residual activity: 14.8%
MAPK1 (human)
  residual activity: 89.3%
BMX (human)
  residual activity: 41.1%
CHEK2 (human)
  residual activity: 31.3%
ROS1 (human)
  residual activity: 16.7%
PRKD3 (human)
  residual activity: 93.9%
AXL (human)
  residual activity: 101%
GRK7 (human)
  residual activity: 79.2%
PRKCZ (human)
  residual activity: 97.1%
PHKG1 (human)
  residual activity: 71.7%
CAMK4 (human)
  residual activity: 94.1%
PTK6 (human)
  residual activity: 61.6%
DYRK2 (human)
  residual activity: 84%
ADRBK1 (human)
  residual activity: 106%
MAP3K11 (human)
  residual activity: 18.1%
CSK (human)
  residual activity: 98.4%
GSK3B (human)
  residual activity: 27.9%
NEK7 (human)
  residual activity: 97.7%
ACVR1B (human)
  residual activity: 103%
STK33 (human)
  residual activity: 44.7%
TGFBR2 (human)
  residual activity: 116%
DAPK3 (human)
  residual activity: 57.5%
DYRK4 (human)
  residual activity: 103%
PLK1 (human)
  residual activity: 97.1%
EPHA1 (human)
  residual activity: 69.9%
MELK (human)
  residual activity: 69.1%
ITK (human)
  residual activity: 45.4%
TEK (human)
  residual activity: 104%
MAP3K5 (human)
  residual activity: 99.5%
NTRK1 (human)
  residual activity: 14.6%
GRK4 (human)
  residual activity: 92.1%
ULK2 (human)
  residual activity: 95.1%
EPHA8 (human)
  residual activity: 98.2%
STK39 (human)
  residual activity: 118%

## O=C(O)c1ccc2c3c1cccc3c(=O)n1c3ccccc3nc21
GSG2 (human)
  residual activity: 90.9%
DDR2 (human)
  residual activity: 96.8%
CDK1 CCNA2 (human)
  residual activity: 78.1%
MERTK (human)
  residual activity: 77.7%
ULK1 (human)
  residual activity: 83.5%
PRKG1 (human)
  residual activity: 94% and 95.1%
TAOK2 (human)
  residual activity: 95.2%
MAP2K2 (human)
  residual activity: 105%
MAP3K9 (human)
  residual activity: 64.4%
MAPK1 (human)
  residual activity: 100%
BMX (human)
  residual activity: 96.4%
CHEK2 (human)
  residual activity: 75.2%
ROS1 (human)
  residual activity: 95.2%
PRKD3 (human)
  residual activity: 82.2%
AXL (human)
  residual activity: 94.3%
GRK7 (human)
  residual activity: 102%
PRKCZ (human)
  residual activity: 94.3%
PHKG1 (human)
  residual activity: 91.5%
CAMK4 (human)
  residual activity: 101%
PTK6 (human)
  residual activity: 91.1%
DYRK2 (human)
  residual activity: 50.7%
ADRBK1 (human)
  residual activity: 99.3%
MAP3K11 (human)
  residual activity: 23.7%
CSK (human)
  residual activity: 101%
GSK3B (human)
  residual activity: 100%
NEK7 (human)
  residual activity: 105%
ACVR1B (human)
  residual activity: 93.5%
STK33 (human)
  residual activity: 78.8%
TGFBR2 (human)
  residual activity: 133%
DAPK3 (human)
  residual activity: 51.3%
DYRK4 (human)
  residual activity: 95.9%
PLK1 (human)
  residual activity: 110%
EPHA1 (human)
  residual activity: 95.3%
MELK (human)
  residual activity: 97%
ITK (human)
  residual activity: 97.7%
TEK (human)
  residual activity: 102%
MAP3K5 (human)
  residual activity: 102%
NTRK1 (human)
  residual activity: 105%
GRK4 (human)
  residual activity: 95.5%
ULK2 (human)
  residual activity: 93.9%
EPHA8 (human)
  residual activity: 89.4%
STK39 (human)
  residual activity: 102%

From the kinase profiling compilation of Christmann-Franck et al. (2016)
